Test results published in patent US11078228B2, “Ectonucleotidase inhibitors and methods of use thereof” (Calithera Biosciences, Inc., priority 2018, dated 2021).
pIC50: −log10 of the molar value.

Each molecule was assayed against recombinant CD73 (Homo sapiens (Human), UniProt P21589) (assay: Assay 2: Inhibition of the CD73 enzyme in vitro (0.05 nM CD73, 1 hour 37° C., Malachite Green)). Conditions: 0.05 nM CD73, 50 μM AMP, 1 hour at 37° C.
Type: biochemical
How it was run: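 Soluble recombinant CD73 reactions ran 1 hour at 37° C. Malachite Green was then added, and absorbance at 630 nm was read after 5 min at room temperature. Inorganic phosphate was quantified from a phosphate standard curve.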

Sequence of recombinant CD73 (P21589 27-547): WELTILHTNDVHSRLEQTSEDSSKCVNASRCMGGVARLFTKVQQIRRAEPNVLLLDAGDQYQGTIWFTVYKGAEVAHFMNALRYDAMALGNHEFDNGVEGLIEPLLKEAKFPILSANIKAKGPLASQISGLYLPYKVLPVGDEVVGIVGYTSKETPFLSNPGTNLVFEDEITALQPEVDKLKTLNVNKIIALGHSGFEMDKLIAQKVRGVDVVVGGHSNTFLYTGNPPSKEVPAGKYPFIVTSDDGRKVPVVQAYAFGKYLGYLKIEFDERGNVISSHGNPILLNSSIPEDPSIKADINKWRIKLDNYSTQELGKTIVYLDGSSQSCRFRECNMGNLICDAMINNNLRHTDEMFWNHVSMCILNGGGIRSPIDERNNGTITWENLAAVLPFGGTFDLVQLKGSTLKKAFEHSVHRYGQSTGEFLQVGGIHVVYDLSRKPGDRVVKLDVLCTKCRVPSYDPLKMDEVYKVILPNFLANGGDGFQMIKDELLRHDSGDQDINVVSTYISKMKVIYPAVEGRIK

**Q.** How did the pIC50 turn out when `C#C[C@@]1(O)[C@@H](COC(Cc2cccs2)(C(=O)O)C(=O)O)O[C@@H](n2cnc3c(N)nc(Cl)nc32)[C@@H]1O` [Example 128, 2-(((2R,3S,4R,5R)-5-(6-amino-2-chloro-9H-purin-9-yl)-3-ethynyl-3,4-dihydroxytetrahydrofuran-2-yl)methoxy)-2-(thiophen-2-ylmethyl)malonic acid] was run?
**A.** The pIC50 was 8.22.

**Q.** `C#C[C@@]1(O)[C@@H](COC(Cc2ccccc2)(C(=O)O)C(=O)O)O[C@@H](n2cnc3c(NC(C)C)cc(Cl)nc32)[C@@H]1O` [Example 30, 2-benzyl-2-(((2R,3S,4R,5R)-5-(5-chloro-7-(isopropylamino)-3H-imidazo[4,5-b]pyridin-3-yl)-3-ethynyl-3,4-dihydroxytetrahydrofuran-2-yl)methoxy)malonic acid] was tested. Which pIC50 did it give?
**A.** The pIC50 was 8.30.

**Q.** With `C#C[C@@]1(O)[C@@H](COC(Cc2ccccc2)(C(=O)O)C(=O)O)O[C@@H](n2cnc3c(NC[C@@H](C)O)nc(Cl)nc32)[C@@H]1O` [Example 35, 2-benzyl-2-(((2R,3S,4R,5R)-5-(2-chloro-6-(((R)-2-hydroxypropyl)amino)-9H-purin-9-yl)-3-ethynyl-3,4-dihydroxytetrahydrofuran-2-yl)methoxy)malonic acid] as the molecule, how does the pIC50 read?
**A.** The pIC50 was 8.40.

**Q.** How did the pIC50 turn out when `C#C[C@@]1(O)[C@@H](COC(Cc2ccc(N3CCCNC3=O)cc2)(C(=O)O)C(=O)O)O[C@@H](n2cnc3c(NCc4ccc(OC)cc4OC)cc(Cl)nc32)[C@@H]1O` [Example 156, 2-(((2R,3S,4R,5R)-5-(5-chloro-7-((2,4-dimethoxybenzyl)amino)-3H-imidazo[4,5-b]pyridin-3-yl)-3-ethynyl-3,4-dihydroxytetrahydrofuran-2-yl)methoxy)-2-(4-(2-oxotetrahydropyrimidin-1 (2H)-yl)benzyl)malonic acid] was run?
**A.** The pIC50 was 9.85.

**Q.** With `C#C[C@@]1(O)[C@@H](COC(Cc2ccccc2)(C(=O)O)C(=O)O)O[C@@H](n2cnc3c(NO)nc(Cl)nc32)[C@@H]1O` [Example 168, 2-benzyl-2-(((2R,3S,4R,5R)-5-(2-chloro-6-(hydroxyamino)-9H-purin-9-yl)-3-ethynyl-3,4-dihydroxytetrahydrofuran-2-yl)methoxy)malonic acid] as the molecule, how does the pIC50 read?
**A.** Its pIC50 is 7.85.

**Q.** How did the pIC50 turn out when `C#C[C@@]1(O)[C@@H](COC(Cc2ccccc2)(C(=O)O)C(=O)OCC)O[C@@H](n2cnc3c(N)nc(C(N)=O)nc32)[C@@H]1O` (stereo partly drawn) [Example 121, 2-(((2R,3S,4R,5R)-5-(6-amino-2-carbamoyl-9H-purin-9-yl)-3-ethynyl-3,4-dihydroxytetrahydrofuran-2-yl)methoxy)-2-benzyl-3-ethoxy-3-oxopropanoic acid] was run?
**A.** The pIC50 was 5.77.

**Q.** `C#C[C@@]1(O)[C@@H](COC(Cc2ccccc2)(C(=O)O)C(=O)O)O[C@@H](n2cnc3c(N4CC[C@@H](O)C4)nc(Cl)nc32)[C@@H]1O` [Example 100, 2-benzyl-2-(((2R,3S,4R,5R)-5-(2-chloro-6-((R)-3-hydroxypyrrolidin-1-yl)-9H-purin-9-yl)-3-ethynyl-3,4-dihydroxytetrahydrofuran-2-yl)methoxy)malonic acid] was tested. Which pIC50 did it give?
**A.** The pIC50 was 8.70.

**Q.** How did the pIC50 turn out when `C#C[C@@]1(O)[C@@H](COC(Cc2ccccc2)(C(=O)O)C(=O)NC)O[C@@H](n2cnc3c(NCc4ccccc4)nc(Cl)nc32)[C@@H]1O` (stereo partly drawn) [Example 107, 2-benzyl-2-(((2R,3S,4R,5R)-5-(6-(benzylamino)-2-chloro-9H-purin-9-yl)-3-ethynyl-3,4-dihydroxytetrahydrofuran-2-yl)methoxy)-3-(methylamino)-3-oxopropanoic acid] was run?
**A.** Its pIC50 is 6.30.

**Q.** `C#C[C@@]1(O)[C@@H](COC(Cc2ccccc2)(C(=O)O)C(=O)O)O[C@@H](n2cnc3c(N(C)CCOC)nc(Cl)nc32)[C@@H]1O` [Example 39, 2-benzyl-2-(((2R,3S,4R,5R)-5-(2-chloro-6-((2-methoxyethyl)-(methyl)amino)-9H-purin-9-yl)-3-ethynyl-3,4-dihydroxytetrahydrofuran-2-yl)methoxy)malonic acid] was tested. Which pIC50 did it give?
**A.** The pIC50 was 8.52.

**Q.** `C#C[C@@]1(O)[C@@H](COC(Cc2ccccc2)(C(=O)O)C(=O)O)O[C@@H](n2cnc3c(NCC4CCC4)nc(Cl)nc32)[C@@H]1O` [Example 45, 2-benzyl-2-(((2R,3S,4R,5R)-5-(2-chloro-6-((cyclobutylmethyl)amino)-9H-purin-9-yl)-3-ethynyl-3,4-dihydroxytetrahydrofuran-2-yl)methoxy)malonic acid] was tested. Which pIC50 did it give?
**A.** Its pIC50 is 9.00.

**Q.** How did the pIC50 turn out when `C#C[C@@]1(O)[C@@H](COC(Cc2ccc(N3CCCNC3=O)cc2)(C(=O)O)C(=O)O)O[C@@H](n2nc(C)c3ccc(Cl)nc32)[C@@H]1O` [Example 131, 2-(((2R,3S,4R,5R)-5-(6-chloro-3-methyl-1H-pyrazolo[3,4-b]pyridin-1-yl)-3-ethynyl-3,4-dihydroxytetrahydrofuran-2-yl)methoxy)-2-(4-(2-oxotetrahydropyrimidin-1(2H)-yl)benzyl)malonic acid] was run?
**A.** The pIC50 was less than 7.00.

**Q.** How did the pIC50 turn out when `C#C[C@@]1(O)[C@@H](COC(Cc2ccccc2)(C(=O)O)C(=O)O)O[C@@H](n2cnc3c(NCC(=O)O)nc(Cl)nc32)[C@@H]1O` [Example 76, 2-benzyl-2-(((2R,3S,4R,5R)-5-(6-((carboxymethyl)amino)-2-chloro-9H-purin-9-yl)-3-ethynyl-3,4-dihydroxytetrahydrofuran-2-yl)methoxy)malonic acid] was run?
**A.** The pIC50 was 8.22.

**Q.** `C#C[C@@]1(O)[C@@H](COC(Cc2ccccc2)(C(=O)O)C(=O)O)O[C@@H](n2cnc3c(NCc4ccncc4)nc(Cl)nc32)[C@@H]1O` [Example 78, 2-benzyl-2-(((2R,3S,4R,5R)-5-(2-chloro-6-((pyridin-4-ylmethyl)amino)-9H-purin-9-yl)-3-ethynyl-3,4-dihydroxytetrahydrofuran-2-yl)methoxy)malonic acid] was tested. Which pIC50 did it give?
**A.** The pIC50 was 8.70.

**Q.** How did the pIC50 turn out when `C#C[C@@]1(O)[C@@H](COC(C(=O)O)C(=O)O)O[C@@H](n2cnc3c(NCc4ccccc4)nc(Cl)nc32)[C@@H]1O` [Example 118, 2-(((2R,3S,4R,5R)-5-(6-(benzylamino)-2-chloro-9H-purin-9-yl)-3-ethynyl-3,4-dihydroxytetrahydrofuran-2-yl)methoxy)malonic acid] was run?
**A.** The pIC50 was 7.32.

**Q.** `C#C[C@@]1(O)[C@@H](COC(Cc2ccccc2)(C(=O)O)C(=O)O)O[C@@H](n2cnc3c(N)nc(SCC)nc32)[C@@H]1O` [Example 145, 2-(((2R,3S,4R,5R)-5-(6-amino-2-(ethylthio)-9H-purin-9-yl)-3-ethynyl-3,4-dihydroxytetrahydrofuran-2-yl)methoxy)-2-benzylmalonic acid] was tested. Which pIC50 did it give?
**A.** The pIC50 was 6.97.

**Q.** With `C#C[C@@]1(O)[C@@H](COC(Cc2ccccc2)(C(=O)O)C(=O)O)O[C@@H](n2cnc3c(NCCO)nc(Cl)nc32)[C@@H]1O` [Example 97, 2-benzyl-2-(((2R,3S,4R,5R)-5-(2-chloro-6-((2-hydroxyethyl)amino)-9H-purin-9-yl)-3-ethynyl-3,4-dihydroxytetrahydrofuran-2-yl)methoxy)malonic acid] as the molecule, how does the pIC50 read?
**A.** The pIC50 was 8.70.

**Q.** How did the pIC50 turn out when `C#C[C@@]1(O)[C@@H](COC(Cc2ccccc2)(C(=O)O)C(=O)O)O[C@@H](n2cnc3c(NCc4cccc(Cl)c4)nc(Cl)nc32)[C@@H]1O` [Example 86, 2-benzyl-2-(((2R,3S,4R,5R)-5-(2-chloro-6-((3-chlorobenzyl)amino)-9H-purin-9-yl)-3-ethynyl-3,4-dihydroxytetrahydrofuran-2-yl)methoxy)malonic acid] was run?
**A.** The pIC50 was 9.00.

**Q.** `C#C[C@@]1(O)[C@@H](COC(Cc2ccc(NCCN(C)CC(=O)O)cc2)(C(=O)O)C(=O)O)O[C@@H](n2cnc3c(N)nc(Cl)nc32)[C@@H]1O` [Example 155, 2-(((2R,3S,4R,5R)-5-(6-amino-2-chloro-9H-purin-9-yl)-3-ethynyl-3,4-dihydroxytetrahydrofuran-2-yl)methoxy)-2-(4-((2-((carboxymethyl)(methyl)amino)ethyl)amino)benzyl)malonic acid] was tested. Which pIC50 did it give?
**A.** Its pIC50 is 8.70.

**Q.** How did the pIC50 turn out when `C#C[C@@]1(O)[C@@H](COC(Cc2ccccc2)(C(=O)O)C(=O)O)O[C@@H](n2cnc3c(N4CCC4)nc(Cl)nc32)[C@@H]1O` [Example 88, 2-(((2R,3S,4R,5R)-5-(6-(azetidin-1-yl)-2-chloro-9H-purin-9-yl)-3-ethynyl-3,4-dihydroxytetrahydrofuran-2-yl)methoxy)-2-benzylmalonic acid] was run?
**A.** The pIC50 was 8.92.

**Q.** How did the pIC50 turn out when `C#C[C@@]1(O)[C@@H](COC(Cc2ccccc2)(C(=O)O)C(=O)O)O[C@@H](n2cnc3c(NCc4cccc(F)c4)nc(Cl)nc32)[C@@H]1O` [Example 85, 2-benzyl-2-(((2R,3S,4R,5R)-5-(2-chloro-6-((3-fluorobenzyl)amino)-9H-purin-9-yl)-3-ethynyl-3,4-dihydroxytetrahydrofuran-2-yl)methoxy)malonic acid] was run?
**A.** The pIC50 was 8.70.

**Q.** With `C#C[C@@]1(O)[C@@H](COC(Cc2ccccc2)(C(=O)O)C(=O)O)O[C@@H](n2cnc3c(N4CCC[C@@H]4CO)nc(Cl)nc32)[C@@H]1O` [Example 103, 2-benzyl-2-(((2R,3S,4R,5R)-5-(2-chloro-6-((R)-2-(hydroxymethyl)-pyrrolidin-1-yl)-9H-purin-9-yl)-3-ethynyl-3,4-dihydroxytetrahydrofuran-2-yl)methoxy)malonic acid] as the molecule, how does the pIC50 read?
**A.** The pIC50 was 8.52.

**Q.** `C#C[C@@]1(O)[C@@H](CO[C@](Cc2ccccc2)(C(=O)O)c2cscn2)O[C@@H](n2cnc3c(NCC4CC4)nc(Cl)nc32)[C@@H]1O` (single isomer, unassigned) [Example 172] was tested. Which pIC50 did it give?
**A.** The pIC50 was 8.22.

**Q.** How did the pIC50 turn out when `C#C[C@@]1(O)[C@@H](COC(Cc2ccccc2)(C(=O)O)C(=O)O)O[C@@H](n2cnc3c(N)nc(C(C)=O)nc32)[C@@H]1O` [Example 127, 2-(((2R,3S,4R,5R)-5-(2-acetyl-6-amino-9H-purin-9-yl)-3-ethynyl-3,4-dihydroxytetrahydrofuran-2-yl)methoxy)-2-benzylmalonic acid] was run?
**A.** The pIC50 was 6.77.

**Q.** `C#C[C@@]1(O)[C@@H](COC(Cc2ccccc2)(C(=O)O)C(=O)O)O[C@@H](n2cnc3c(N(C)C(C)C)nc(Cl)nc32)[C@@H]1O` [Example 82, 2-benzyl-2-(((2R,3S,4R,5R)-5-(2-chloro-6-(isopropyl(methyl)amino)-9H-purin-9-yl)-3-ethynyl-3,4-dihydroxytetrahydrofuran-2-yl)methoxy)malonic acid] was tested. Which pIC50 did it give?
**A.** The pIC50 was 8.70.
